Laboratory results: paper PMC12064818, “A general assay platform to study protein pharmacology using ligand-dependent structural dynamics” (Nature Communications, 2025)

These molecules were tested against T1, FLuc-C-HiBiT (Photinus pyralis, UniProt P08659) (assay: biochemical). Conditions: enzyme activity, 10 uM ATP; read-out: IC50 or SDR50 (mM) / FLuc E.
T1 construct: firefly luciferase with C-terminal HiBiT tag, E. coli expressed
T1 sequence (P08659 whole entry, looked up): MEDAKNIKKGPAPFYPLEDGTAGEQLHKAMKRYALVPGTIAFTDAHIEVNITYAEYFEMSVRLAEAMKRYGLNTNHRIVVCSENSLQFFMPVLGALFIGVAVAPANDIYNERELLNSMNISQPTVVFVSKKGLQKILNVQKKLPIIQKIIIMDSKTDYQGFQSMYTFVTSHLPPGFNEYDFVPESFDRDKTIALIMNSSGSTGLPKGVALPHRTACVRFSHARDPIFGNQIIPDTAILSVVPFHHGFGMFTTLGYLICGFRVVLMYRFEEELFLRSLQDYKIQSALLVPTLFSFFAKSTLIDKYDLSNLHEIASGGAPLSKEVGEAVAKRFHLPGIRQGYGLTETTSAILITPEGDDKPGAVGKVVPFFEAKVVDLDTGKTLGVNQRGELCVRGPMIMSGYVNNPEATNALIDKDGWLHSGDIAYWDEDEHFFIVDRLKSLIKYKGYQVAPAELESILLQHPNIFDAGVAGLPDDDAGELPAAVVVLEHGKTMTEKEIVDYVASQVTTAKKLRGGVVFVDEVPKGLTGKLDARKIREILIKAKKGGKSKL

Row | Compound | IC50
1 | COc1cccc(-c2cn3ncsc3n2)c1 [NCGC00117781-01] | 11.1 µM
2 | CC(C)n1cnnc1CC1CCN(C(=O)Nc2ccc3c(c2)OCCO3)CC1 [NCGC00456228-01] | 9.89 µM
3 | Cc1ccc(NC(=O)Nc2ccccc2)c(=O)n1CC(=O)NCC1CCCO1 (stereo not drawn) [NCGC00430764-01] | 11.1 µM
4 | COc1ccc(-c2cc(N3CCCC(NC(=O)c4ccc(OC)cc4OC)C3)[nH]n2)cc1 (stereo not drawn) [NCGC00437622-01] | 11.1 µM
5 | O=C(Nc1ccc2c(c1)OCCO2)N1CCC2(CC1)CC(N1CCCC1)CCO2 (stereo not drawn) [NCGC00453772-01] | 11.1 µM
6 | CN(C)c1cccc(C(=O)Nc2ccc(-c3nc4ccccc4s3)cc2)c1 [NCGC00137782-01] | 8.81 µM
7 | COc1cccc(Nc2ncc(-c3ccc(OC)nc3)c3c2OCC3)c1 [NCGC00412784-01] | 20.2 µM
8 | CC(=O)N1CCNc2cc(Nc3cccc(N(C)C)c3)ncc2C1 [NCGC00411238-01] | 16.1 µM
9 | Nc1nc(=O)c2[nH]c(=O)n(C3CC(O)C(CO)O3)c2[nH]1 (stereo not drawn) [NCGC00390462-01] | > 30 µM
10 | Cc1ccc(NC(=O)Nc2cccn3nc(C)nc23)cc1 [NCGC00470444-01] | 11.1 µM
11 | C[S+](=O)([O-])CCn1ncc2cc(OCc3cccc(-c4cccnc4)c3)ccc21 [NCGC00418034-01] | 16.1 µM
12 | CC(C)c1nc(C2Cc3ccccc3N2C(=O)NC2CCCC2)no1 (stereo not drawn) [NCGC00471499-01] | 14 µM
13 | COCCNc1cc(-c2ccc3ccccc3n2)c2cc[nH]c2n1 [NCGC00440476-01] | 12.4 µM
14 | COc1ccc(-c2ccc3c(c2)C(=O)N2CC[C@H](NC(=O)c4cccc(F)c4)[C@H]2C(=O)N3)cc1 [NCGC00399389-01] | 9.89 µM
15 | C[C@@H]1C(=O)O[C@H]2[C@H]1CC[C@@]1(C)Cc3sc(NCc4ccccc4)nc3[C@@H](C)[C@H]21 [NCGC00391358-01] | 7.18 µM
16 | Cc1ccc(-c2cccc(COc3cnc4c(ccn4CC(=O)O)c3)c2)cc1 [NCGC00418171-01] | 8.05 µM
17 | O=C(Nc1ccccc1-c1nc2ccccc2s1)c1cc(Cl)cc(Cl)c1 [NCGC00135642-01] | > 30 µM
18 | Cc1ccc(C2Cn3nnc(C(=O)N4CCC(C(=O)Nc5ccc(F)cc5)CC4)c3CO2)cc1 (stereo not drawn) [NCGC00449591-01] | 11.1 µM
19 | Cc1cc(-c2cc3c(cn2)CN(Cc2ccccc2O)CCN3)ccn1 [NCGC00411040-01] | 18 µM
20 | O=C1Cc2c(-c3cccc4ccccc34)n[nH]c2CN1CCOc1ccccc1 [NCGC00409142-01] | 18 µM

Row | Compound | IC50
21 | Cc1ccc(-n2ncc3c(N4CCC(Cc5ccccc5)CC4)ncnc32)cc1C [NCGC00139123-01] | > 30 µM
22 | Cc1ccc(-c2nnc(C3CN(C(=O)c4sc(C)nc4C)CC34CCOCC4)o2)cc1 (stereo not drawn) [NCGC00471668-01] | > 30 µM
23 | COc1ccccc1-c1cc2nc(C)c(CCC(=O)O)c(C)n2n1 [NCGC00108411-01] | 12.4 µM
24 | OCCN1CCN(c2nc(N3CCCCC3)c3cnn(-c4ccc(Cl)cc4)c3n2)CC1 [NCGC00652352-01] | > 30 µM
25 | NC(=O)[C@@H]1CCCN1C(=O)c1ccc2oc(-c3cccc(F)c3)nc2c1 [NCGC00444081-01] | > 30 µM
26 | COc1ccc(-c2noc([C@@H]3C[C@@H](O)CN3Cc3cccs3)n2)cc1 [NCGC00400674-01] | 20.2 µM
27 | CCOC(=O)C1CCCN(c2ncnc3c2cnn3-c2ccc(C)c(Cl)c2)C1 (stereo not drawn) [NCGC00139179-01] | > 30 µM
28 | NC(=O)COC(=O)c1ccccc1-c1nc2ccccc2s1 [NCGC00641952-01] | > 30 µM
29 | Cc1cn2nc(C(=O)Nc3ccc(N(C)C)cc3)cc2c(N2CCCC2)n1 [NCGC00454051-01] | 11.1 µM
30 | Cc1ccc(-c2cc3c(=O)n(CCNC(=O)c4ccco4)ccn3n2)c(C)c1 [NCGC00456979-01] | 9.89 µM
31 | Cc1c(-c2ccc(F)cc2)[nH]c2ccc(CNC(=O)CN3CCOC3=O)cc12 [NCGC00442659-01] | 11.1 µM
32 | CC(C)(CC(=O)O)CC(=O)N1Cc2nc[nH]c2C[C@H]1c1nc(Cc2ccccc2)no1 [NCGC00396501-01] | > 30 µM
33 | Cc1ccc(-c2cccc(COc3cnc4c(ccn4CC(=O)O)c3)c2)cc1C [NCGC00418247-01] | 18 µM
34 | CC(C)n1cc2cc(C(=O)Nc3ccc4c(c3)OCCO4)sc2c1 [NCGC00470606-01] | 9.89 µM
35 | CN1c2cc(C(=O)Nc3ccccc3)ccc2C(=O)N2CCCCCC21 (stereo not drawn) [NCGC00452190-01] | 11.1 µM
36 | COc1ccc2cc(C3CN(C(=O)CNC(=O)C(C)C)CCO3)ccc2c1 (stereo not drawn) [NCGC00430625-01] | 12.4 µM
37 | CN(C)c1ccc(-c2noc([C@@H]3CCCN3Cc3cnc4ccccc4c3)n2)cn1 [NCGC00394599-01] | > 30 µM
38 | CC(=O)Nc1cccc(-c2cccc(CCOc3cnc4c(ccn4CC(=O)O)c3)c2)c1 [NCGC00418203-01] | 16.1 µM
39 | COc1ccc(OCC(=O)Nc2cccc(-c3nc4ccccc4s3)c2C)cc1 [NCGC00118972-01] | 7.85 µM
40 | O=C(Nc1ccc(Cl)cc1)Nc1ccc2n(c1=O)C[C@H]1C[C@@H]2CN(C(=O)c2ccc3ccccc3c2)C1 [NCGC00395236-01] | 12.4 µM

Row | Compound | IC50
41 | Cc1ccc(C2Cn3nnc(C(=O)N4CCC(C(=O)NCCN5CCCC5)CC4)c3CO2)cc1 (stereo not drawn) [NCGC00449567-01] | 9.89 µM
42 | CC(C)C(=O)NC1CCN(Cc2ccc(-c3nc4cccc(Cl)c4s3)cc2)CC1 [NCGC00632240-01] | > 30 µM
43 | OC1CCN(c2ncnc3c2cnn3-c2ccccc2)CC1 [NCGC00626234-01] | 15.7 µM
44 | C[C@@H]1C(=O)O[C@H]2[C@H]1CC[C@@]1(C)Cc3sc(NC(=O)c4c(F)cccc4F)nc3[C@@H](C)[C@H]21 [NCGC00421654-01] | 9.89 µM
45 | CC(C)c1ccc(C2=CC(c3ccc(C(C)C)cc3)n3nnnc3N2)cc1 (stereo not drawn) [NCGC00140789-01] | > 30 µM
46 | Cc1ccc(NC(=O)N2CCCC(c3noc(COc4ccccc4)n3)C2)cc1C (stereo not drawn) [NCGC00453299-01] | 8.81 µM
47 | O=C(NCCC1CCN(C(=O)Nc2cc(F)cc(F)c2)CC1)c1ccc(F)cc1 [NCGC00425011-01] | > 30 µM
48 | CCn1ccnc1C1CCN(c2nc3ccccc3s2)CC1 [NCGC00442461-01] | 9.89 µM
49 | COc1ccc(-c2ncc3c(n2)OCCN(Cc2ccccc2)C3=O)cc1 [NCGC00413617-01] | 18 µM
50 | Cc1cc2c(c(-c3nc4ccccc4s3)c1)OC(CNC(=O)CCc1cccnc1)C2 (stereo not drawn) [NCGC00239520-01] | 17.6 µM
51 | O=C(COc1ccccc1Cl)Nc1ccc(-c2nc3ccccc3s2)cc1 [NCGC00098726-01] | > 30 µM
52 | CCOc1ncccc1C(=O)OCC(=O)Nc1ccc(-c2nc3ccc(C)cc3s2)cc1 [MLS000418033-02] | 16 µM
53 | Cc1cnc(CCNC(=O)Nc2ccc3c(c2)OCCO3)n1Cc1ccc(F)cc1 [NCGC00469838-01] | 12.4 µM
54 | Cc1ccc(-c2nc(C(=O)N3CCN(c4ccccc4)CC3)no2)cc1 [NCGC00447113-01] | 11.1 µM
55 | COCCN1CCNc2cc(Nc3cccc(OC)c3)ncc2C1 [NCGC00411124-01] | 18 µM
56 | Cc1ccc(-c2cc(N)n(-c3ccc(C)cc3)n2)cc1 [NCGC00141302-01] | 9.89 µM
57 | Fc1ccc2[nH]c([C@H]3CCN(Cc4ccccc4F)C3)nc2c1 [NCGC00391187-01] | 14.3 µM
58 | CSCC(=O)Nc1nn(-c2ccc(F)cc2)c2cccc(N3CCOCC3)c12 [NCGC00439780-01] | 9.89 µM

The remaining lines, values ahead:

Row | IC50 | Compound
59 | 6.24 µM | CCc1ccc(Nc2nc(-c3ccccc3F)no2)cc1 [NCGC00422308-01]
60 | 7 µM | O=C(NCCc1ccccc1Cl)c1ccc2c(c1)nc1n2CCOC1 [NCGC00133432-01]
61 | 0.0785 µM | CNc1ccc(-c2nc3ccccc3s2)cc1 [NCGC00165760-02]
62 | 5.08 µM | CNC(=O)c1cccc(-c2cnc(Nc3cccnc3OC)c3c2CCO3)c1 [NCGC00412753-01]
63 | 7 µM | COc1ccc(-c2cc3c(=O)n(CCNC(=O)c4c(F)cccc4Cl)ccn3n2)cc1 [NCGC00456907-01]
64 | 1.57 µM | CSc1cccc(NC(=O)Nc2cccc(-c3ccc(N4CCOCC4)nn3)c2)c1 [NCGC00427606-01]
65 | 6.24 µM | CCc1cccc(NC(=O)Nc2cccc(-c3ccc(N4CCOCC4)nn3)c2)c1 [NCGC00427616-01]
66 | 5.56 µM | CC(C)Cc1noc(-c2ccc(N3CCC(O)CC3)nc2)n1 [NCGC00434953-01]
67 | 4.42 µM | CN(Cc1cnn(C)c1)C(=O)c1csc2nc(-c3ccc(C(F)(F)F)cc3)cn12 [NCGC00425000-01]
68 | 7 µM | Cc1ccc(-c2cc3c(=O)n(CCNC(=O)c4ccccc4F)ccn3n2)c(C)c1 [NCGC00456982-01]
69 | 0.442 µM | Fc1ccc(Cc2cn3cc(-c4ccccc4)nc3s2)cc1 [NCGC00102102-01]
70 | 0.7 µM | CC1CCCN(c2ncnc3c2cnn3-c2ccc(F)cc2)C1 (stereo not drawn) [NCGC00139051-01]
71 | 3.13 µM | Cc1ccc(C2=CC(c3ccccc3F)n3c(nc4ccccc43)N2)cc1C (stereo not drawn) [NCGC00140809-01]
72 | 2.21 µM | Cc1ccc(-n2ncc3c(N(C)C)ncnc32)cc1Cl [NCGC00139189-01]
73 | 0.785 µM | O=C(O)c1ccc(-c2noc(-c3ccc(Cl)cc3)n2)cc1 [NCGC00168101-01]
74 | 5.56 µM | COc1ccc(CCNC(=O)C2CCCN(c3nc4c(C)cc(C)cc4s3)C2)cc1OC (stereo not drawn) [NCGC00113075-01]
75 | 0.197 µM | Cc1ccc(-c2nc(-c3ccccc3)no2)c(Cl)c1 [NCGC00085930-01]
76 | 1.97 µM | COc1ccc(CNC(=O)Nc2cccc(-c3ccc(N4CCOCC4)nn3)c2)cc1 [NCGC00427608-01]
77 | 5.56 µM | Cc1c(NC(=O)C(C)(C)C)cccc1-c1nc2ccccc2s1 [NCGC00118970-01]
78 | 0.7 µM | c1ccc(-c2noc(-c3ccc4ccccc4c3)n2)cc1 [NCGC00045018-01]
79 | 3.51 µM | C[C@H](C(=O)N1CCOCC1)C1CC[C@@]2(C)Cc3sc(-c4ccccc4)nc3[C@@H](C)[C@@H]2[C@H]1O (stereo partly drawn) [NCGC00421021-01]
80 | 4.42 µM | CCCNC(=O)C1C(c2cccc(NC(=O)c3ccc(C)cc3)c2)OC(=O)N1Cc1ccc(C)cc1 (stereo not drawn) [NCGC00475006-01]
81 | 3.13 µM | O=C1CCc2cc(NC(=O)c3n[nH]c4ccccc34)ccc2N1 [NCGC00425473-01]
82 | 7 µM | O=C(COc1ccc(Cl)cc1)Nc1ccc(-c2nc3cc(Cl)ccc3o2)c(O)c1 [NCGC00099397-01]
83 | 0.0785 µM | Cc1c(C(=O)Nc2ccc(C(=O)O)cc2)nnn1-c1ccccc1 [NCGC00141304-01]
84 | 1.76 µM | COc1ccc(-n2ncc3c(NC4CCCC4)ncnc32)cc1 [NCGC00139254-01]
